Laboratory results as given in patent EP1981504B1, “THIADIAZOLE DERIVATIVES FOR THE TREATMENT OF NEURO DEGENERATIVE DISEASES” (NV reMYND, priority 2006, dated 2007).
≈ marks a conversion by molar mass, not a printed value.

System: M17-SYNwt cells
Assay: α-synuclein cytotoxicity assay (LDH leakage from paraquat-treated α-synuclein over-expressing neuroblastoma cells)
Assay type: cell-based, human
Conditions: paraquat 32 mM, 40 hours, LDH release; for EC50: Homo sapiens, Neuroblastoma cell, 10 point curves in duplicate; for %I: percent inhibition of synuclein cytotoxicity at most effective concentration of test compound, relative to untreated paraquat cells
How it was run: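 M17 neuroblastoma cells over-expressing wild-type α-synuclein were challenged with paraquat, and cytotoxicity was read as LDH release. Protection was expressed as percent reduction of paraquat-induced LDH release relative to untreated paraquat cells and control cells. Actives were retested in 10-point duplicate dose responses.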

Row | Compound | EC50 [µg/mL] | %I [%]
1 | CC1CN(c2nc(Cc3ccccc3)ns2)CCN1C(=O)c1ccc(F)cc1 (stereo not drawn) [Compound 154, 1-(4-fluorobenzoyl)-4-[3-benzyl-1,2,4-thiadiazol-5-yl]-2-methylpiperazine] | 1.58 (≈ 3.98 µM) | 75
2 | Cc1ccc(Cc2nsc(N3CCN(C(=O)c4ccc(Cl)cc4)CC3)n2)cc1 [Compound 155, 1-(4-chlorobenzoyl)-4-[3-(4-methylbenzyl)-1,2,4-thiadiazol-5-yl]piperabine] | 1.64 (≈ 3.97 µM) | 76
3 | Cc1ccc(Cc2nsc(N3CCN(C(=O)c4cccc(F)c4)C(C)C3)n2)cc1 (stereo not drawn) [Compound 156, 1-(3-fluorobenzoyl)-4-[3-(4-methylbenzyl)-1,2,4-thiadiazol-5-yl]-2-methylpiperazine] | 1.67 (≈ 4.07 µM) | 86
4 | O=C(c1cccc(F)c1)N1CCN(c2nc(Cc3ccc(Cl)cc3)ns2)CC1 [Compound 157, 1-(3-fluorobenzoyl)-4-[3-(4-chlorobenzyl)-1,2,4-thiadiazol-5-yl]piperazine] | 1.7 (≈ 4.08 µM) | 70
5 | Cc1ccc(Cc2nsc(N3CCN(C(=O)c4ccccc4)CC3)n2)cc1 [Compound 158, 1-benzoyl-4-[3-(4-methylbenzyl)-1,2,4-thiadiazol-5-yl]piperazine] | 2.1 (≈ 5.55 µM) | 57
6 | O=C(c1ccccc1F)N1CCN(c2nc(Cc3ccc(Cl)cc3)ns2)CC1 [Compound 159, 1-(2-fluorobenzoyl)-4-[3-(4-chlorobenzyl)-1,2,4-thiadiazol-5-yl]piperazine] | 2.85 (≈ 6.84 µM) | 48
7 | Cc1ccc(Cc2nsc(N3CCN(C(=O)c4ccc(F)cc4)CC3)n2)cc1 [Compound 160, 1-(4-fluorobenzoyl)-4-[3-(4-methylbenzyl)-1,2,4-thiadiazol-5-yl]piperazine] | 2.87 (≈ 7.24 µM) | 88
8 | Cc1ccc(Cc2nsc(N3CCN(C(=O)c4ccc5c(c4)OCO5)C(C)C3)n2)cc1 (stereo not drawn) [Compound 161, 1-(1,3-benzodioxol-5-ylcarbonyl)-4-[3-(4-methylbenzyl)-1,2,4-thiadiazol-5-yl]-2-methyl+B176piperazine] | 3.36 (≈ 7.7 µM) | 101
9 | Cc1ccc(Cc2nsc(N3CCN(C(=O)c4cccc(F)c4)CC3)n2)cc1 [Compound 162, 1-(3-flurorbenzoyl)-4-[3-(4-methylbenzyl)-1,2,4-thiadiazol-5-yl]piperazine] | 3.4 (≈ 8.58 µM) | 101
10 | O=C(c1ccc(F)cc1)N1CCN(c2nc(Cc3ccccc3)ns2)CC1 [Compound 163, 1-(4-fluorobenzoyl)-4-[3-benzyl-1,2,4-thiadiazol-5-yl]piperazine] | 3.61 (≈ 9.44 µM) | 67
11 | Cc1ccc(Cc2nsc(N3CCN(C(=O)c4ccc(Br)cc4)CC3)n2)cc1 [Compound 164, 1-(4-bromobenzoyl)-4-[3-(4-methylbenzyl)-1,2,4-thiadiazol-5-yl]piperazine] | 3.86 (≈ 8.44 µM) | 60
12 | CCc1ccc(C(=O)N2CCN(c3nc(Cc4ccc(Cl)cc4)ns3)CC2)cc1 [Compound 165, 1-(4-ethylbenzoyl)-4-[3-(4-chlorobenzyl)-1,2,4-thiadiazol-5-yl]piperazine] | – | 133
13 | CC1CN(c2nc(Cc3ccc(F)cc3)ns2)CCN1C(=O)c1ccccc1Cl (stereo not drawn) [Compound 166, 1-(2-chlorobenzoyl)-4-[3-(4-fluorobenzyl)-1,2,4-thiadiazol-5-yl]-2-methylpiperazine] | – | 123
14 | CC1CN(c2nc(Cc3ccc(Cl)cc3)ns2)CCN1C(=O)c1ccccc1F (stereo not drawn) [Compound 167, 1-(2-fluorobenzoyl)-4-[3-(4-chlorobenzyl)-1,2,4-thiadiazol-5-yl]-2-methylpiperazine] | – | 117
15 | COc1cccc(Cc2nsc(N3CCN(C(=O)c4ccc(C(F)(F)F)cc4)C(C)C3)n2)c1 (stereo not drawn) [Compound 168, 1-(4-trifluoromethylbenzoyl)-4-[3-(3-methoxybenzyl)-1,2,4-thiadiazol-5-yl]-2-methylpiperazine] | – | 91
16 | Cc1ccc(Cc2nsc(N3CCN(C(=O)c4ccccc4)C(C)C3)n2)cc1 (stereo not drawn) [Compound 169, 1-benzoyl-4-[3-(4-methylbenzyl)-1,2,4-thiadiazol-5-yl]-2-methylpiperazine] | – | 91
17 | COc1cccc(Cc2nsc(N3CCN(C(=O)c4ccc(Br)cc4)C(C)C3)n2)c1 (stereo not drawn) [Compound 170, 1-(4-bromobenzoyl)-4-[3-(3-methoxybenzyl)-1,2,4-thiadiazol-5-yl]-2-methylpiperazine] | – | 89
18 | Cc1ccc(Cc2nsc(N3CCN(C(=O)c4ccc(C(F)(F)F)cc4)CC3)n2)cc1 [Compound 171, 1-(4-trifluoromethylbenzoyl)-4-[3-(4-methylbenzyl)-1,2,4-thiadiazol-5-yl]piperazine] | – | 86

Row | Compound | EC50 [µg/mL] | %I [%]
19 | Cc1ccc(C(=O)N2CCN(c3nc(Cc4ccc(F)cc4)ns3)CC2C)cc1[N+](=O)[O-] (stereo not drawn) [Compound 172, 1-(3-nitro-4-methylbenzoyl)-4-[3-(4-fluorobenzyl)-1,2,4-thiadiazol-5-yl]-2-methylpiperazine] | – | 86
20 | COc1cccc(Cc2nsc(N3CCN(C(=O)c4ccccc4)C(C)C3)n2)c1 (stereo not drawn) [Compound 173, 1-benzoyl-4-[3-(3-methoxybenzyl)-1,2,4-thiadiazol-5-yl]-2-methylpiperazine] | – | 85
21 | COc1cccc(Cc2nsc(N3CCN(C(=O)c4ccc(Cl)cc4)C(C)C3)n2)c1 (stereo not drawn) [Compound 174, 1-(4-chlorobenzoyl)-4-[3-(3-methoxybenzyl)-1,2,4-thiadiazol-5-yl]-2-methylpiperazine] | – | 83
22 | Cc1ccc(Cc2nsc(N3CCN(C(=O)c4ccccc4F)CC3)n2)cc1 [Compound 175, 1-(2-fluorobenzoyl)-4-[3-(4-methylbenzyl)-1,2,4-thiadiazol-5-yl]piperazine] | – | 78
23 | CCCCCCc1ccc(C(=O)N2CCN(c3nc(Cc4ccc(C)cc4)ns3)CC2)cc1 [Compound 176, 1-(4-hexylbenzoyl)-4-[3-(4-methylbenzyl)-1,2,4-thiadiazol-5-yl]piperazine] | – | 77
24 | CC1CN(c2nc(Cc3ccc(F)cc3)ns2)CCN1C(=O)c1ccc([N+](=O)[O-])cc1Cl (stereo not drawn) [Compound 177, 1-(2-chloro-4-nitrobenzoyl)-4-[3-(4-fluorobenzyl)-1,2,4-thiadiazol-5-yl]-2-methylpiperazine] | – | 77
25 | CC1CN(c2nc(Cc3ccc(F)cc3)ns2)CCN1C(=O)c1ccc2c(c1)OCO2 (stereo not drawn) [Compound 178, 1-(1,3-benzodioxol-5-ylcarbonyl)-4-[3-(4-fluorobenzyl)-1,2,4-thiadiazol-5-yl]-2-methylpiperazine] | – | 68
26 | CC1CN(c2nc(Cc3ccc(F)cc3)ns2)CCN1C(=O)c1cccc(F)c1 (stereo not drawn) [Compound 179, 1-(3-fluorobenzoyl)-4-[3-(4-fluorobenzyl)-1,2,4-thiadiazol-5-yl]-2-methylpiperazine] | – | 68
27 | CC(C)(C)c1ccc(C(=O)N2CCN(c3nc(Cc4ccc(F)cc4)ns3)CC2)cc1 [Compound 180, 1-(4-tert-butylbenzoyl)-4-[3-(4-fluorobenzyl)-1,2,4-thiadiazol-5-yl]piperazine] | – | 62
28 | O=C(c1ccccc1)N1CCN(c2nc(Cc3ccc(F)cc3)ns2)CC1 [Compound 181, 1-benzoyl-4-[3-(4-fluorobenzyl)-1,2,4-thiadiazol-5-yl]piperazine] | – | 60
29 | CCCCc1ccc(C(=O)N2CCN(c3nc(Cc4ccc(C)cc4)ns3)CC2)cc1 [Compound 182, 1-(4-butylbenzoyl)-4-[3-(4-methylbenzyl)-1,2,4-thiadiazol-5-yl]piperazine] | – | 57
30 | Cc1ccc(Cc2nsc(N3CCN(C(=O)c4ccc(C(C)(C)C)cc4)CC3)n2)cc1 [Compound 183, 1-(4-tert-butylbenzoyl)-4-[3-(4-methylbenzyl)-1,2,4-thiadiazol-5-yl]piperazine] | – | 52
31 | CC1CN(c2nc(Cc3ccc(F)cc3)ns2)CCN1C(=O)c1ccc([N+](=O)[O-])cc1 (stereo not drawn) [Compound 184, 1-(4-nitrobenzoyl)-4-[3-(4-fluorobenzyl)-1,2,4-thiadiazol-5-yl]-2-methylpiperazine] | – | 52
32 | Cc1ccccc1N1CCN(c2nc(Cc3ccc(F)cc3)ns2)CC1 [Compound 185, 1-(2-methylphenyl)-4-[3-(4-fluorobenzyl)-1,2,4-thiadiazol-5-yl]piperazine] | 0.38 (≈ 1.03 µM) | 114
33 | CCOc1ccccc1N1CCN(c2nc(Cc3ccc(F)cc3)ns2)CC1 [Compound 186, 1-(2-ethoxyphenyl)-4-[3-(4-fluorobenzyl)-1,2,4-thiadiazol-5-yl]piperazine] | 2.05 (≈ 5.14 µM) | 94
34 | Fc1ccc(Cc2nsc(N3CCN(c4ccccc4F)CC3)n2)cc1 [Compound 187, 1-(2-fluorophenyl)-4-[3-(4-fluorobenzyl)-1,2,4-thiadiazol-5-yl]piperazine] | 2.81 (≈ 7.54 µM) | 83
35 | Fc1ccc(Cc2nsc(N3CCN(c4cccc(C(F)(F)F)c4)CC3)n2)cc1 [Compound 188, 1-(3-trifluoromethylphenyl)-4-[3-(4-fluorobenzyl)-1,2,4-thiadiazol-5-yl]piperazine] | – | 96
36 | O=C(c1ccc(Cl)cc1)N1CCCN(c2nc(Cc3ccc(F)cc3)ns2)CC1 [Compound 189, 1-(4-chlorobenzoyl)-4-[3-(4-fluorobenzyl)-1,2,4-thiadiazol-5-yl]-1,4-diazepane] | 0.17 (≈ 0.394 µM) | 85
